# Data reported in US8088763B2 (priority 2004, dated 2012).
# Assays:
# [1] = target: NA-uptake (Rattus norvegicus, UniProt Q63380); test: biochemical; conditions: for inhibition at 10 µM: read-out: NA-uptake [10 μM], % inhibition
# [2] = target: T1, 5HT-uptake (Rattus norvegicus, UniProt P31652); test: biochemical; conditions: for inhibition at 10 µM: read-out: 5HT-uptake [10 μM], % inhibition
# T1 construct: synaptosomes were freshly isolated from areas of rats' brains
# T1 sequence (P31652 whole entry): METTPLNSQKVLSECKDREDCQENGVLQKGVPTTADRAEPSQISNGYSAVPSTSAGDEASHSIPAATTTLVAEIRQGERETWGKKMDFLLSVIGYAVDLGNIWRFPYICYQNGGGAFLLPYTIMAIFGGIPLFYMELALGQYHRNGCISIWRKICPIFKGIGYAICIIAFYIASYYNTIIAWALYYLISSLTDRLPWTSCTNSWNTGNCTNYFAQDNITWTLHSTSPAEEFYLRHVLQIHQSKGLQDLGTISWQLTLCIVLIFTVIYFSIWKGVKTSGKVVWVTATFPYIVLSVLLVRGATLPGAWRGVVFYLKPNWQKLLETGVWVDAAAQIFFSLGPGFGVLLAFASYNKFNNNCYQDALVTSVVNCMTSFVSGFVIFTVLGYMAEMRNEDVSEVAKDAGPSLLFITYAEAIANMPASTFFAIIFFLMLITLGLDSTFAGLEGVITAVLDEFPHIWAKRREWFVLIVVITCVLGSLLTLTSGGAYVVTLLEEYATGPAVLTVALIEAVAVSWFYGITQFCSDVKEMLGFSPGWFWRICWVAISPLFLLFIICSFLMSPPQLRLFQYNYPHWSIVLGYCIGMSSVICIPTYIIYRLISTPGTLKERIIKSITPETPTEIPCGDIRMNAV
# Sequence of NA-uptake (Q63380 1-617): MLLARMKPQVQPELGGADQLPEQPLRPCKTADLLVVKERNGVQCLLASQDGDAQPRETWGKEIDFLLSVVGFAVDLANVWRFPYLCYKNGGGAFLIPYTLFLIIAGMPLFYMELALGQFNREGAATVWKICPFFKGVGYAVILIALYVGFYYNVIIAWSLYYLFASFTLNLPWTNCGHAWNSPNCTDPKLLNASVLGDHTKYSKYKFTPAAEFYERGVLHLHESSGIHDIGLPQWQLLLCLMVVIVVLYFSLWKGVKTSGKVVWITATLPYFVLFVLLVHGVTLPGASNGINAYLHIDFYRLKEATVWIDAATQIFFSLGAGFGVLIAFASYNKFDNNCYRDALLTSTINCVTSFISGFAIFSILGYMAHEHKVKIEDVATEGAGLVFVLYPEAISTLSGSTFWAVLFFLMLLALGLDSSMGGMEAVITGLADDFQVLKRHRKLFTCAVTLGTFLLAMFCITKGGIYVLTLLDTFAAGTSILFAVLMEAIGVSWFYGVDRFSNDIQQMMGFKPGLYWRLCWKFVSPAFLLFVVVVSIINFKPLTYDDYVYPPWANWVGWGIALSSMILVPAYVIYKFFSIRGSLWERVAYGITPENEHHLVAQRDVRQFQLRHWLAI
Compound,inhibition at 10 µM [1] [%],inhibition at 10 µM [2] [%],"NA-uptake [10 μM], % inhibition [1] [%]","5HT-uptake [10 μM], % inhibition [2] [%]"
"CN(C)C1(Cc2ccc(Cl)cc2)CCC(NC(=O)CCC(=O)N2CCN(C(=O)c3cccc(Cl)c3)CC2)CC1 (stereo not drawn) [Example 134, 4-[4-(3-chloro-benzoyl)-piperazin-1-yl]-N-[4-(4-chloro-benzyl)-4-dimethylamino-cyclohexyl]-4-oxo-butyramide]",101,92,–,–
"CCC(NC(=O)CCC(=O)NC1CCC(Cc2ccc(Cl)cc2)(N(C)C)CC1)c1ccccc1 (stereo not drawn) [Example 135, N-[4-(4-chloro-benzyl)-4-dimethylamino-cyclohexyl]-N′-(1-phenyl-propyl)-succinamide]",96,92,–,–
"CN(Cc1cccnc1)C(=O)CCC(=O)NC1CCC(Cc2cccc(Cl)c2)(N(C)C)CC1 (stereo not drawn) [Example 137, N-[4-(3-chloro-benzyl)-4-dimethylamino-cyclohexyl]-N′-methyl-N′-pyridin-3-ylmethyl-succinamide]",83,94,–,–
"CCOc1ccccc1CNC(=O)CCC(=O)NC1CCC(Cc2ccc(C)cc2)(N(C)C)CC1 (stereo not drawn) [Example 138, N-[4-dimethylamino-4-(4-methyl-benzyl)-cyclohexyl]-N′-(2-ethoxy-benzyl)-succinamide]",84,92,–,–
"COc1ccc2[nH]cc(CCNC(=O)CCC(=O)NC3CCC(Cc4cccc(C)c4)(N(C)C)CC3)c2c1 (stereo not drawn) [Example 139, N-[4-dimethylamino-4-(3-methyl-benzyl)-cyclohexyl]-N′-(2-(5-methoxy-1H-indol-3-yl)-ethyl]-succinamide]",95,93,–,–
"CCC(C)c1ccc(NC(=O)CCC(=O)NC2CCC(Cc3ccc(Cl)cc3)(N(C)C)CC2)cc1 (stereo not drawn) [Example 140, N-(4-sec-butyl-phenyl)-N′-[4-(4-chloro-benzyl)-4-dimethylamino-cyclohexyl]-succinamide]",77,93,–,–
"CN(C)C1(Cc2ccc(Cl)cc2)CCC(NC(=O)CCC(=O)NCc2cccc(Br)c2)CC1 (stereo not drawn) [Example 165, N-(3-bromo-benzyl)-N′-[4-(4-chloro-benzyl)-4-dimethylamino-cyclohexyl]-succinamide]",94,92,–,–
"Cc1ccc(CCNC(=O)CCC(=O)NC2CCC(Cc3ccc(C)cc3)(N(C)C)CC2)cc1 (stereo not drawn) [Example 168, N-[4-dimethylamino-4-(4-methyl-benzyl)-cyclohexyl]-N′-(2-p-tolyl-ethyl)-succinamide]",96,92,–,–
Glutaric acid-(4-benzyl-4-dimethylamino- cyclohexyl)-amide 4-dimethylamino- benzylamide [Example 81],–,–,91,92
